Results taken from patent US8796249B2, “TGR5 modulators and methods of use thereof” (Intercept Pharmaceuticals, Inc., priority 2008, dated 2014).

Legend:
[1] = Critical micellar concentration by surface tension (maximum bubble-pressure method); format: physicochemical
Procedure: The critical micellar concentration (CMC) was determined by surface tension (ST) measurements using a maximum bubble-pressure method which give surface tension values slightly affected by potential impurities like static methods are. The tensiometer was a […] Research Corp., Milwaukee, Wis.) equipped with two glass probes of 0.5 and 4.0 mm diameters connected to a source of nitrogen. The bubble frequency was 1 bubble/second in distilled water at 26° C. (P=2.7 atm) and the calibration was made with double-distilled water and methanol. The surface tension of BA sodium salts solutions in NaCl 0.15 M was measured at various concentrations inside the 0.13-50 mM range. The surface tension values were plotted against the logarithm of the bile salt concentration; the regression lines corresponding to the two parts of the curve (monomeric and micellar phases) were calculated using the method of least squares, and the intersection of the lines was taken as the CMC value. From the ST vs concentration curves the value of the surface tension at the CMC (equilibrium between monomers and multimers species) was also calculated giving information about the detergency power which is related to the size of the micelles with associate surface tension lowering capacity. The CMC was evaluated by surface tension measurements in non equilibrium conditions i.e. in conditions that impurities slightly affect the surface tension results (FIG. 1).

[2] = Biliary secretion, bile flow and metabolism in bile-fistula rat after duodenal (id) and femoral (iv) infusion; format: in vivo; conditions: for choleretic effect (bile flow): bile fistula rat
Procedure: To evaluate the mode and efficiency of the intestinal absorption the analogues were administered both intravenously (femoral infusion) and orally (duodenal infusion) at the same dose and their biliary secretion rate was evaluated in bile fistula rat model. The differences in the area under the curve of the biliary secretion vs time between iv and id administration account of its intestinal absorption and give information about its biovailability.
The bile fistula rat model was developed at the University of Bologna Lab facilities. The compound 3A was administered at a dose of 1 μmol/kg/min (1 hour infusion) to a rat group via duodenal infusion (id). Rat have a bile fistula to collect bile samples at different times before and during the infusion. For duodenal infusion experiment 3 rats (250±10 g) were treated. Bile samples were collected every 15 minutes for four hours. In addition, 3 control rats were treated with saline solution under the same conditions for times and sampling (duodenal control rats).
Duodenal infusion starts after 30 min baseline bile collection and continues for one hour.
For femoral infusion experiment, 3 rats were treated. […] Femoral infusion starts after 75 minutes of steady-state and continues for 60 min. Bile samples were collected every 15 minutes for four hours. In addition, 3 rats were treated with saline solution under the same conditions for times and sampling (femoral control rats).
Rat bile samples were brought to room temperature, briefly stirred, and diluted 1:100 v/v (bile samples from duodenal orinfusion) and 1:100 or 1:200 v/v (bile samples from femoral infusion) with 15 mM ammonium acetate buffer (pH=5.0):acetonitrile=70:30 (v/v). Final solution was transferred in autosampler vials, and 10 μL was injected into the chromatographic column.
Bile rat samples were analyzed by liquid chromatography-tandem mass spectrometry (HPLC-MS/MS) using electrospray (ESI) source in negative ionization mode. For liquid chromatography a Waters Alliance 2695 separation module coupled with autosampler was used. Autosampler was maintained at 7° C. Separation was performed on a Synergi Hydro-RP C18 column (150×2.0 mm i.d., 4 μm particle size), protected by a SecurityGuard ODS 4×2.0 mm i.d. precolumn, both supplied from Phenomenex. […]. Nitrogen was used as nebulizer gas at 90 L/h flow rate and as desolvation gas at 930 L/h. Ion source block and desolvation temperatures were set respectively to 80° C. and 180° C. Capillary voltage was 3.0 kV. MassLynx software version 4.0 was used for data acquisition and processing. In addition, using mass spectrometry both in single MS or tandem MS/MS configuration experiments were performed to identify metabolites.
A 5-point calibration curve was daily prepared and injected in duplicate. Calibration samples were obtained in the 0.1 to 25 μmol/L concentration range prepared in mobile phase. Linear calibration curve parameters were obtained from the plot of the analyte peak area versus analyte concentration using a least squares regression analysis (weight=1/x^2). Correlation coefficients were ≧0.989.
The data refer to the secretion rate of the analogues recovered in bile as such after duodenal and femoral infusion at a dose of 1 umol/Kg/min. Major and minor metabolites are reported later.
For a preliminary screening the search of the possible metabolites has been performed on the basis of the expected compounds according to previous experiments and data and to the structure and physicochemical properties of the studied analogues.

[3] = rat, duodenal infusion 1 umol/Kg/min 1 h, time 120 min
[4] = rat, duodenal infusion 1 umol/Kg/min 1 h, time 150 min
[5] = rat, duodenal infusion 1 umol/Kg/min 1 h, time 180 min
[6] = rat, duodenal infusion 1 umol/Kg/min 1 h, time 210 min
[7] = rat, duodenal infusion 1 umol/Kg/min 1 h, time 240 min
[8] = rat, duodenal infusion 1 umol/Kg/min 1 h, time 270 min
[9] = rat, duodenal infusion 1 umol/Kg/min 1 h, time 300 min
[10] = rat, femoral infusion 1 umol/Kg/min 1 h, time 90 min
[11] = rat, femoral infusion 1 umol/Kg/min 1 h, time 120 min
[12] = rat, femoral infusion 1 umol/Kg/min 1 h, time 150 min
[13] = rat, femoral infusion 1 umol/Kg/min 1 h, time 180 min
[14] = rat, femoral infusion 1 umol/Kg/min 1 h, time 210 min
[15] = rat, femoral infusion 1 umol/Kg/min 1 h, time 240 min

With `CC[C@H]1[C@@H](O)[C@@H]2[C@H](C[C@H](O)[C@]3(C)[C@@H]([C@H](C)CCCS(=O)(=O)[O-])CC[C@@H]23)[C@@]2(C)CC[C@@H](O)C[C@@H]12.[Na+]` [Compound 3A, 3α,7α,12α-trihydroxy-6α-ethyl-5β-cholan-24-sulfonate Sodium Salt] the “surface tension lowering capacity” value ([1]; NaCl […]) was “high surface tension lowering capacity”, the “CMC […] Na+” value ([1]; […] NaCl water solution) was 2.8 mM and the “STCMC (surface tension at CMC)” value ([1]; […] NaCl water solution) was 43.4 Dyne/cm. The “choleretic effect (bile flow)” value ([2]; duodenal infusion (id) 1 μmol/kg/min, 1 hour) was “moderate choleretic effect”, the “choleretic effect (bile flow)” value ([2]; femoral infusion (iv), 60 min) was “moderate choleretic effect” and the “hepatic and intestinal metabolism” value ([2]; bile-fistula rat, iv and id) was “not metabolized by the liver or by the intestine”. The intestinal absorption ([2]; rat, after id administration, recovery in bile much lower than after iv) was “poorly absorbed by the intestine”, the recovery in bile ([2]; rat, after iv administration) was “almost completely recovered in bile” and the Conc. in bile [2, 3] was 370 µM. For the same compound, the “Secretion (biliary)” value [2, 3] was 0.026 µmol/kg/min, the Conc. in bile [2, 4] was 900 µM and the “Secretion (biliary)” value [2, 4] was 0.079 µmol/kg/min. For the same compound, the Conc. in bile [2, 5] was 1300 µM, the “Secretion (biliary)” value [2, 5] was 0.101 µmol/kg/min and the Conc. in bile [2, 6] was 950 µM. The “Secretion (biliary)” value [2, 6] was 0.061 µmol/kg/min, the Conc. in bile [2, 7] was 700 µM and the “Secretion (biliary)” value [2, 7] was 0.043 µmol/kg/min. For the same compound, the Conc. in bile [2, 8] was 580 µM, the “Secretion (biliary)” value [2, 8] was 0.039 µmol/kg/min and the Conc. in bile [2, 9] was 510 µM. The “Secretion (biliary)” value [2, 9] was 0.029 µmol/kg/min, the Conc. in bile [2, 10] was 2600 µM and the “Secretion (biliary)” value [2, 10] was 0.105 µmol/kg/min. The Conc. in bile [2, 11] was 7300 µM, the “Secretion (biliary)” value [2, 11] was 0.588 µmol/kg/min and the Conc. in bile [2, 12] was 7500 µM. The “Secretion (biliary)” value [2, 12] was 0.463 µmol/kg/min, the Conc. in bile [2, 13] was 6200 µM and the “Secretion (biliary)” value [2, 13] was 0.363 µmol/kg/min. The Conc. in bile [2, 14] was 3400 µM, the “Secretion (biliary)” value [2, 14] was 0.247 µmol/kg/min and the Conc. in bile [2, 15] was 1000 µM. For the same compound, the “Secretion (biliary)” value [2, 15] was 0.045 µmol/kg/min and the melting point was > 280 °C.
